# Key:
# [1] = test system: HT-1080; experiment: Antiproliferative activity against human HT1080 cells by MTT assay; format: functional, cell-based
# [2] = Antiproliferative activity against mouse Colon 26-L5 cells by MTT assay; format: functional, cell-based
SMILES,EC50 [1] [mg/L],EC50 [2] [mg/L]
CC(=O)O[C@H]1C[C@]2(C(C)(C)O)C(=C1C)[C@@H](O)[C@@H](OC(=O)c1ccccc1)[C@]1(C)[C@@H](OC(C)=O)C[C@H](O)[C@@]3(OC(C)=O)CO[C@H]2[C@H]31 [TAXUYUNNANINE E],> 100,> 100
C=C1[C@@H](OC(C)=O)CC[C@@]2(C)C[C@H](O)C3=C(C)C[C@H](OC(=O)CC)[C@@H]([C@@H](OC(C)=O)[C@H]12)C3(C)C [HONGDOUSHAN B],> 100,70.4
COc1cc([C@H]2c3cc(O)c(OC)cc3C[C@H]3C(=O)OC[C@H]23)ccc1O [ALPHA-CONIDENDRIN],> 100,> 100
C=C1[C@@H](OC(C)=O)CC[C@@]2(C)C[C@H](O)C3=C(C)C[C@H](OC(=O)[C@@H](C)CC)[C@@H]([C@@H](OC(C)=O)[C@H]12)C3(C)C [HONGDOUSHAN A],61,40.1
C=C1[C@@H](O)CC[C@@]2(C)C[C@H](O)C3=C(C)C[C@H](OC(=O)[C@@H](C)CC)[C@@H]([C@@H](OC(C)=O)[C@H]12)C3(C)C [HONGDOUSHAN C],61.1,3.8
C=C1[C@@H](OC(C)=O)CC[C@]2(C)[C@@H]1C[C@@H]1C[C@H](OC(C)=O)C(C)=C([C@@H](OC(C)=O)[C@@H]2OC(C)=O)C1(C)C [TAXUSIN],61.4,51.7
C=C1[C@@H](OC(C)=O)CC[C@@]2(C)C[C@H](OC(C)=O)C3=C(C)C[C@H](OC(=O)[C@@H](C)CC)[C@@H]([C@@H](OC(C)=O)[C@H]12)C3(C)C,84.9,84.1
O=c1[nH]cc(F)c(=O)[nH]1 [FLUOROURACIL],0.29,0.07
COc1cc(C[C@@H](CO)[C@H](CO)Cc2ccc(O)c(OC)c2)ccc1O [(+)-SECOISOLARICIRESINOL],5.9,60.2

# Source: ChEMBL document CHEMBL1150140, “Three new C-14 oxygenated taxanes from the wood of Taxus yunnanensis” (J Nat Prod, 2002)
